Where two headings read alike, the source gives them in different places. Where a SMILES comes first, the peptide text is derived from it. [ ]: non-standard residue; d: D form. βAla = NCCC(=O)O
Tests used:
Assay type in all cases: in vitro ADME, human
[1] = Soluble peptide degradation, Cells condition (LC-MS); conditions: human, 24 h, LC-MS, ratio to βFβA6
Method in brief: (§1)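 Pooled synthetic TAILS-derived peptides added to hUVEC or hMSC cultures (Cells) or cell-free conditioned media (Media); MMP-14 inhibitor NSC 405 020 at 10 µM final. Samples taken at 0 and 24 h, acidified, analysed by LC-MS; peak areas normalised to 50 µM βFβA6 internal standard, 24 h/0 h gives fraction remaining.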

MMP-14 = experiment: as above; conditions: human, with NSC 405 020 (MMP-14 inhibitor), Figure 3C, 50 µM peptide, 24 h, LC-MS, N = 6
Method in brief: as §1

hMSCs = experiment: as above; conditions: Figure 3C; individually synthesized soluble peptide, 50 µM, media on hMSCs; 24 h; LC-MS, ratio to βFβA6; N = 6
Method in brief: as §1

hUVECs = experiment: as above; conditions: Figure 3B heatmap; split-and-pool libraries KLVADX1X2ASAE in media on hUVECs; 24 h; LC-MS, ratio to βFβA6; N = 2
Method in brief: as §1

[2] = Soluble peptide degradation, Media condition (cell-conditioned media, LC-MS); conditions: 24 h, LC-MS, ratio to βFβA6
Method in brief: (§2)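 Pooled peptide library added to medium conditioned by hUVECs or hMSCs with cells removed. Fraction remaining after 24 h measured by LC-MS (positive-ion ESI). Value is peptide peak area relative to 50 µM non-degradable βFβA6 internal standard.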

[3] = as above; conditions: 24 h, LC-MS, ratio to βFβA6; remark: listed apart in the source
Method in brief: as §2

remaining at 24 h ([1]; hMSCs in culture with fresh media (Cells condition), Figure 3B heatmap, split-and-pool libraries KLVADX1X2ASAE (19 or 38 peptides per library) in media on hMSCs, N = 2, read-out: Fraction of peptide remaining after 24 hours: hMSC Cells): 53%
remaining at 24 h, 50 µM ([1]; hUVECs in culture with fresh media (Cells condition), Figure 3C, individually synthesized soluble peptide, 50 µM, media on hUVECs, N = 6, read-out: Fraction of peptide remaining after 24 hours: hUVEC Cells): 72%
remaining at 24 h, 50 µM (MMP-14; media on hMSCs with MMP-14 inhibitor NSC 405 020 10 µM, read-out: Fraction of peptide remaining after 24 hours: hMSC +Inhibitor): 76%
remaining at 24 h, 50 µM (MMP-14; media on hUVECs with MMP-14 inhibitor NSC 405 020 10 µM, read-out: Fraction of peptide remaining after 24 hours: hUVEC +Inhibitor): 98%
Fraction of peptide remaining after 24 hours: hMSC Cells (hMSCs): 0.4
Fraction of peptide remaining after 24 hours: hUVEC Cells (hUVECs): 0.86
Fraction of peptide remaining after 24 hours: hMSC Media ([2]; Figure 3C, individually synthesized soluble peptide, 50 µM, hMSC-conditioned media without cells, N = 6): 0.91
remaining at 24 h ([2]; human, hMSC-conditioned media without cells (Media condition), Figure 3B heatmap, split-and-pool libraries KLVADX1X2ASAE in hMSC-conditioned media without cells, N = 2, read-out: Fraction of peptide remaining after 24 hours: hMSC Media): 78%
Fraction of peptide remaining after 24 hours: hUVEC Media ([3]; Figure 3B heatmap, split-and-pool libraries KLVADX1X2ASAE in hUVEC-conditioned media without cells, N = 2): 0.96
Fraction of peptide remaining after 24 hours: hUVEC Media ([3]; Figure 3C, individually synthesized soluble peptide, 50 µM, hUVEC-conditioned media without cells, N = 6): 0.92
SMILES: CC(=O)NCCC(=O)N[C@@H](CCCCN)C(=O)N[C@@H](CC(C)C)C(=O)N[C@H](C(=O)N[C@@H](C)C(=O)N[C@@H](CC(=O)O)C(=O)N[C@@H](Cc1ccc(O)cc1)C(=O)N[C@@H](Cc1c[nH]c2ccccc12)C(=O)N[C@@H](C)C(=O)N[C@@H](CO)C(=O)N[C@@H](C)C(=O)N[C@@H](CCC(=O)O)C(=O)NCCC(N)=O)C(C)C [KLVAD-YW] (Ac-[βAla]KLVADYWASAE[βAla]-NH2)
